The record followed here is US20250268953A1, “COMPOSITIONS AND METHODS FOR TREATING DISEASE II” (MICROBA IP PTY LTD, priority 2021, published 2025).

The structures appear in SMILES notation. Entries after “also recorded” stand apart in the source; their conditions may differ.

One test deals with DSS treated C57Bl/6 mice. The test is described as follows: Acute model of DSS induced murine colitis (gut barrier dysfunction). Particulars: 3% DSS six days; for DSS induced weight loss / epithelial injury / pathology / histopathological healing (histopathological score): vs DSS+vehicle. It is filed as in vivo.
Test [1] deals with IL-6-mediated activation of STAT3. Briefly: HEK-Blue IL-6 reporter cell line, STAT3-responsive SEAP reporter. It is filed as cell-based, human. The conditions noted are these: control Janus kinase inhibitor at 10 μM; IL-6 2 ng/mL, 24 hours. Here is the method: STAT3 activity was assessed using the HEK Blue IL-6 cell line (Invivogen). Briefly, 50,000 cells per well were seeded in triplicate in a 96-well plate 24 hours prior to the start of the assay. Bacteria supernatant or sterile bacterial medium were added to the cells at a final concentration of 10% v/v for a 60-minute pretreatment. Then recombinant human IL 6 (R&D systems) was added at a final concentration of 2 ng/mL and the cells were incubated at 37° C. for 24 hours. The ability of the supernatants to suppress IL-6 mediated STAT3 activation was compared to the Janus kinase inhibitor tofacitinib (10 μM). After 24 hours, the STAT3 regulated SEAP reporter activity was assessed using Quanti Blue solution as recommended by the manufacturer (Invivogen). Results are the average of three independent experiments. Cytotoxicity was assessed using the CellTiter-Glo® 2.0 Cell Viability Assay (Promega, Australia) as recommended by the manufacturer.

Test [2] concerns IL-23-mediated activation of STAT3. Briefly: HEK-Blue IL-23 reporter cell line, STAT3 inducible SEAP reporter. Format: cell-based, human. The conditions noted are these: control Janus kinase inhibitor at 10 μM; rhIL-23 5 ng/mL, 6 hours. Here is the method: Then, each seed culture broth was used to inoculate two technical replicates each generating six technical replicates from three biological replicates. The technical replicates were grown until early stationary phase and then cell free culture supernatant was harvested as previously described (Giri et al., 2019). Culture supernatants were size fractionated by passing through a 3 kDa CENTRICON® column according to the manufacturer's (Merck Millipore) instructions. To prepare A. shahii MH21-6 supernatant samples for assay, a seed culture was established from a single colony and grown until early stationary phase. Then, the seed culture broth was used to inoculate two technical replicates. […]
STAT3 activity was assessed using the HEK Blue IL-23 cell line (Invivogen). […] STAT3 regulated SEAP reporter activity was assessed using Quanti Blue solution as recommended by the manufacturer (Invivogen). […] Cytotoxicity was assessed using an MTT assay. […] Cytotoxicity was assessed by measuring absorbance at 540 nm as recommended by the manufacturer (Invitrogen, Thermo Fisher, Australia). […]
STAT3 activity was assessed using the HEK Blue IL-23 cell line (Invivogen). […] STAT3 regulated SEAP reporter activity was assessed using Quanti Blue solution as recommended by the manufacturer (Invivogen). […] Cytotoxicity was assessed using MTT assay. […]

Setting [3] is: Example 3 (G. formicilis) study.

On to `C[C@]12C=CC(=O)C=C1CC[C@@H]1[C@@H]2C(=O)C[C@@]2(C)[C@H]1CC[C@]2(O)C(=O)CO` [prednisone], for which the “DSS induced weight loss” value in the test with DSS treated C57Bl/6 mice (Example 1 (A. shahii) study, daily treatment) is given as “exacerbated the DSS induced weight loss”; in the test with DSS treated C57Bl/6 mice (setting [3]) it was “exacerbated the DSS induced weight loss”. In addition, the goblet cells result in the test with DSS treated C57Bl/6 mice (Example 1 (A. shahii) study, relative to vehicle treated control) is given as “ameliorated”. Moreover, the epithelial injury entry is given as “ameliorated” in the test on DSS treated C57Bl/6 mice (Example 1 (A. shahii) study), “Neither prednisone nor F. prausnitzii A2-165 had a significant impact” in the test with DSS treated C57Bl/6 mice (Example 2 (C. sana) study) and “ameliorated” in the test with DSS treated C57Bl/6 mice (setting [3]). For the same compound, the figures for the “pathology / histopathological healing (histopathological score)” value in the test with DSS treated C57Bl/6 mice (Example 1 (A. shahii) study), in the test on DSS treated C57Bl/6 mice (Example 2 (C. sana) study) and in the test on DSS treated C57Bl/6 mice (setting [3]) were “significant improvement in disease pathology”, “Neither prednisone nor F. prausnitzii A2-165 had a significant impact” and “significant improvement in disease pathology”, respectively.
As for `C[C@@H]1CCN(C(=O)CC#N)C[C@@H]1N(C)c1ncnc2[nH]ccc12` [tofacitinib], the “IL-6 mediated activation of STAT3” value in test [1] is given as “fully prevented”. For the same compound, the “IL-23 mediated activation of STAT3 (SEAP expression)” value in test [2] is on record as “could be prevented; also recorded: inhibited IL-23 mediated SEAP expression”.
